Values after ≈ are worked out from the molar mass of the structure shown. Structures can show the parent of a compound that is named as a salt. Where two headings read alike, the source gives them in different places.
Assays:
Pseudomonas aeruginosa = assay: MIC on mass basis (Example V procedure); format: cell-based
Method: (§1) The essential procedure of Example I was followed with a series of phenolic compounds, with the exception that the test method was conducted on a mass (μg/ml) basis rather than a molecular (mol/ml) basis of the foregoing tests, since the long established phenol-coeffecient test is on a mass rather than molecular basis. Additionally, a different but closely related group of organisms were used in this test, in order to give a complete representative span on gram-negative, gram-positive and fungus organisms. Additionally, the phenolic derivatives chosen for test purposes include a number of derivatives which are presently accepted by the FDA as food-grade phenolic microbicides.
(§2) The same procedure of Example V was repeated but with combinations of mono-laurin (GML).
(§3) The procedure of Example V was repeated with combinations of glycerol mono-laurin (GML) and ethylenediamine tetraacetic acid (EDTA) as the calcium salt and in combination with BHA.

Saccharomyces cerevisiae = assay: MIC on mass basis (Example V procedure); format: cell-based; conditions: Saccharomyces cerevisiae
Method: as §1, §2, §3

Staphylococcus aureus = assay: MIC on mass basis (Example V procedure); format: cell-based
Method: as §1, §2, §3

Streptococcus agalactiae = assay: MIC on mass basis (Example V procedure); format: cell-based; conditions: Streptococcus agalactiae
Method: as §1, §2, §3

Escherichia coli = assay: MIC on mass basis (Example V procedure); format: cell-based; conditions: Escherichia coli
Method: as §1, §2, §3

Nocardia asteroides [1] = assay: MIC on mass basis (Example V procedure); format: cell-based
Method: as §1, §2, §3

Candida albicans = assay: MIC on mass basis (Example V procedure); format: cell-based
Method: as §1, §2, §3

Streptococcus mutans = assay: MIC on mass basis (Example V procedure); format: cell-based, Streptococcus mutans (ATCC 10441); conditions: Streptococcus mutans
Method: as §1, §2, §3

Corynebacterium sp. = assay: MIC on mass basis (Example V procedure); format: cell-based
Method: as §1

Nocardia asteroides [2] = assay: MIC, broth dilution (Examples I/II); format: cell-based, Nocardia asteroids (3308); conditions: Nocardia asteroides, read-out: Inhibitory concentration
Method: (§4) In order to establish comparative bactericidal and fungicidal results with homologous fatty acids, a series of experiments was performed with thirty straight-chain fatty acids and derivatives thereof. Eight different gram-negative and twelve different gram-positive organisms, representing a very broad spectrum of organisms, were used in these experiments including the fungus Candida (a yeast). Additionally, fatty acids were chosen to show the effects of saturation versus unsaturation, in the fatty acid claim. Standard solutions of the fatty acids and their derivatives were prepared by first dissolving the weighed compounds in 1 to 2 ml of 95% ethanol and immediately pouring this solution into 200 ml of Tripticase Soy Broth. These lipid compounds which are insoluble in water and broth precipitated into very small crystals or droplets. The tubes containing the suspension were warmed to approximately 70° C and were then placed in an ultrasonic tank for further solubilization of the lipid derivatives.
(§5) Standard solutions (or suspensions) at 1,000 μg/ml were twofold serially diluted with additional broth to a concentration of 125 μg/ml. A 4-ml amount of each dilution was then quickly, and with constant agitation, dispensed into appropriately labeled screw-capped glass tubes (16 by 125 mm). The tubes were sterilized with steam at 15 psi for 15 minutes. After sterilization, all tubes were cooled and incubated overnight at 35° C to insure sterility.
(§6) All compounds were compared on a molar (micromoles/milliliter) rather than on a mass basis. In the following lists of organisms used, those followed by a parenthetical number are registered with the American Type Culture Collection (ATCC); the remainder were isolates from Providence Hospital or Northland Laboratory.
(§7) One drop (0.04 ± 0.01 ml) of an 18-hr broth culture containing 10^7 and 10^9 organisms/ml was added to each dilution of the test compound, as well as to a tube of plain broth which served as the positive control. After inoculation, the contents of each tube were well mixed, and the tubes were incubated at 35° C in a 5% carbon dioxide + […] atmosphere.
(§8) The MIC is defined as the lowest concentration of compound at which no […] evidence of growth was observed when turbidity of the inoculated broth dilutions was compared with control tubes. […] Only a one-tube difference between the bactericidal and bacteriostatic concentrations was normally observed.
(§9) Standard solutions (1000 μg/ml) of three fatty acids and polyglycerol esters thereof were prepared as described in Example I. Also sucrose esters were prepared by transferring the weighed compounds (0.2 gm. dissolved in 1 ml absolute methanol) into 200 ml of sterile Trypticase Soy Broth (TSB). These standard solutions (1000 μg/ml) were twofold serially diluted with additional sterile broth to a concentration of 125 μg/ml. A 3.8 aliquot of each dilution was asceptically delivered into sterile screw-capped culture tubes. All tubes were incubated overnight at 36° C to insure sterility. The microorganisms used in this example were the same as those used in Example I.
(§10) The inoculum, 0.05 ml of an 13-24 hour TSB culture (approximately 10^9 organisms/ml) was asceptically delivered into all dilutions of the compounds, mixed well, and incubated at 36° C. A tube of inoculated broth without the compound served as a positive control and an uninoculated set of dilutions incubated along with the test dilutions, served as a negative control.
(§11) In those cases in which the test compound itself caused turbidity, an aliquot (0.015 ml) of the mixed broth was inoculated onto an agar plate and incubated at 36° C for examination, as described in Example I. The control procedure of Example I was also repeated. The lauric, capric, and oleic acids were used as internal controls and for comparison to Example I. The minimal inhibitory concentrations (μmole/ml) for the compounds studied are given in Tables 7 and 8.

Streptococcus Group A = assay: MIC, broth dilution (Examples I/II); format: cell-based, beta-hemolytic streptococci Group A; conditions: read-out: Inhibitory concentration, Group A Strep
Method: as §4, §5, §6, §7, §8, §9, §10, §11

Streptococcus pyogenes = assay: MIC on mass basis (Example V procedure); format: cell-based
Method: as §1

[3] = test system: Streptococcus faecalis (Group D); assay: MIC on mass basis (Example V procedure); format: cell-based; conditions: Enterococcus faecalis
Method: as §1

[4] = Pseudomonas aeruginosa, Table 11, Pseudomonas aeruginosa, read-out: MIC
[5] = Staphylococcus aureus, Table 11, Staphylococcus aureus, read-out: MIC
[6] = Table 11, Strepococcus agalactiae, read-out: MIC
[7] = Table 11, Escherichia coli, read-out: MIC
[8] = Table 11, Nocardia asteroides, read-out: MIC
[9] = Candida albicans, Table 11, Candida albicans, read-out: MIC
[10] = Table 11, Strepococcus mutans, read-out: MIC
[11] = Table 11, Corynebacterium sp., read-out: MIC
[12] = Pseudomonas aeruginosa, Table 12, Pseudomonas aeruginosa, read-out: MIC
[13] = Table 12, Saccharomyces cerevisiae, read-out: MIC
[14] = Staphylococcus aureus, Table 12, Staphylococcus aureus, read-out: MIC
[15] = Table 12, Eschericia coli, read-out: MIC
[16] = Table 12, Nocardia asteroides, read-out: MIC
[17] = Candida albicans, Table 12, Candida albicans, read-out: MIC
[18] = Table 12, Streptococcus pyogenes, read-out: MIC
[19] = Table 12, Corynebacterium sp., read-out: MIC
[20] = Table 12, Streptococcus faecalis (Group D), read-out: MIC

## CC(C)(C)c1cc(C(C)(C)C)c(O)cc1O [4,6-di-tert-butylresorcinol]
Pseudomonas aeruginosa; [4]
  MIC: > 1000 µg/mL
Saccharomyces cerevisiae
  MIC: 15.6 µg/mL
Staphylococcus aureus; [5]
  MIC: 15.6 µg/mL
Streptococcus agalactiae; [6]
  MIC: 15.6 µg/mL
Escherichia coli; [7]
  MIC: > 1000 µg/mL
Nocardia asteroides [1]; [8]
  MIC: 7.8 µg/mL
Candida albicans; [9]
  MIC: 62.5 µg/mL
Streptococcus mutans; [10]
  MIC: 7.8 µg/mL
Corynebacterium sp.; [11]
  MIC: 7.8 µg/mL (≈ 0.0351 mM)

## CC(C)(C)c1cc(O)cc(C(C)(C)C)c1 [3,5-di-tert-butylphenol]
Pseudomonas aeruginosa; Pseudomonas aeruginosa
  MIC: > 1000 µg/mL
Saccharomyces cerevisiae
  MIC: 62.5 µg/mL
Staphylococcus aureus; Staphylococcus aureus
  MIC: 31.2 µg/mL
Streptococcus agalactiae
  MIC: 31.2 µg/mL
Escherichia coli
  MIC: > 1000 µg/mL
Nocardia asteroides [1]; Nocardia asteroides
  MIC: 15.6 µg/mL
Candida albicans; Candida albicans
  MIC: 62.5 µg/mL
Streptococcus mutans
  MIC: 15.6 µg/mL
Corynebacterium sp.; Corynebacterium
  MIC: 15.6 µg/mL (≈ 0.0756 mM)

## CC(C)(C)c1ccc(C(C)(C)C)c(O)c1 [2,5-di-tert-butylphenol]
Pseudomonas aeruginosa; Pseudomonas aeruginosa
  MIC: > 1000 µg/mL
Saccharomyces cerevisiae
  MIC: 62.5 µg/mL
Staphylococcus aureus; Staphylococcus aureus
  MIC: 62.5 µg/mL
Streptococcus agalactiae
  MIC: 15.6 µg/mL
Escherichia coli
  MIC: > 1000 µg/mL
Nocardia asteroides [1]; Nocardia asteroides
  MIC: 7.8 µg/mL
Candida albicans; Candida albicans
  MIC: > 1000 µg/mL
Streptococcus mutans
  MIC: 7.8 µg/mL
Corynebacterium sp.; Corynebacterium
  MIC: 7.8 µg/mL (≈ 0.0378 mM)

## CC(C)(C)c1cc(C(C)(C)C)c(O)c(C(=O)O)c1O [3,5-di-tert-butyl-2,6-dihydroxbenzoic]
Pseudomonas aeruginosa; [4]
  MIC: > 1000 µg/mL
Saccharomyces cerevisiae
  MIC: 500 µg/mL
Staphylococcus aureus; [5]
  MIC: 31.2 µg/mL
Streptococcus agalactiae; [6]
  MIC: 15.6 µg/mL
Escherichia coli; [7]
  MIC: > 1000 µg/mL
Nocardia asteroides [1]; [8]
  MIC: 15.6 µg/mL
Candida albicans; [9]
  MIC: 500 µg/mL
Streptococcus mutans; [10]
  MIC: 31.2 µg/mL
Corynebacterium sp.; [11]
  MIC: 15.6 µg/mL (≈ 0.0586 mM)

## O=C(O)CN(CCN(CC(=O)O)CC(=O)O)CC(=O)O [EDTA (N2 Ca salt), ethylenediamine tetraacetic acid]
Pseudomonas aeruginosa; Pseudomonas aeruginosa
  MIC: > 1000 µg/mL
Saccharomyces cerevisiae; Table 14, Saccharomyces cerevisiae, read-out: MIC
  MIC: > 1000 µg/mL
Staphylococcus aureus; Staphylococcus aureus
  MIC: > 1000 µg/mL
Streptococcus agalactiae
  MIC: > 1000 µg/mL
Escherichia coli; Table 14, Escherichia coli
  MIC: < 1000 µg/mL
Nocardia asteroides [1]; Nocardia asteroides
  MIC: 1000 µg/mL
Candida albicans; Candida albicans
  MIC: > 1000 µg/mL
Streptococcus mutans
  MIC: 500 µg/mL

## CCCCCCCCCCC(O)C(=O)O (stereo not drawn) [α-hydroxylaurate]
Nocardia asteroides [2]
  MIC: 4630 µM (≈ 1000 µg/mL)
Streptococcus Group A
  MIC: 230 µM (≈ 49.8 µg/mL)

## O=C(O)CN(CCN(CC(=O)O)CC(=O)O)CC(=O)O [EDTA, ethylenediamine tetraacetic acid]
Pseudomonas aeruginosa; Pseudomonas aeruginosa, read-out: MIC of EDTA alone
  MIC: 5000 µg/mL
Pseudomonas aeruginosa; Table 16, Pseudomonas aeruginosa, no unit in table
  MIC: > 1,000
Saccharomyces cerevisiae; Table 16, Saccharomyces cerevisiae, no unit in table, read-out: MIC
  MIC: 1000 µg/mL
Saccharomyces cerevisiae; Table 17, 0 amount of GML, read-out: MIC of EDTA alone
  MIC: 1000 µg/mL
Staphylococcus aureus; Staphylococcus aureus, read-out: MIC of EDTA alone
  MIC: 5000 µg/mL
Staphylococcus aureus; Table 16, Staphylococcus aureus, no unit in table
  MIC: > 1,000
Escherichia coli; Table 16, Escherichia coli, no unit in table (Example 5 procedure, mass basis)
  MIC: > 1000 µg/mL
Escherichia coli; read-out: MIC of EDTA alone, Table 17, 0 amount of GML
  MIC: > 10000 µg/mL
Nocardia asteroides [1]; Nocardia asteroides, read-out: MIC of EDTA alone
  MIC: 500 µg/mL
Nocardia asteroides [1]; Table 16, Nocardia asteroides, no unit in table
  MIC: 1,000
Candida albicans; Candida albicans, read-out: MIC of EDTA alone
  MIC: 5000 µg/mL
Candida albicans; Table 16, Candida albicans, no unit in table
  MIC: > 1,000
Streptococcus pyogenes; Streptococcus pyogenes
  MIC: 1000 µg/mL (≈ 3.42 mM)
Streptococcus pyogenes; Streptococcus pyogenes, read-out: MIC of EDTA alone
  MIC: 1000 µg/mL
Corynebacterium sp.; Corynebacterium
  MIC: 1000 µg/mL (≈ 3.42 mM)
Corynebacterium sp.; Corynebacterium, read-out: MIC of EDTA alone
  MIC: 1000 µg/mL
[3]
  MIC: > 1000 µg/mL
[3]; read-out: MIC of EDTA alone
  MIC: 5000 µg/mL

## CCCCCCCCCCc1cc(C(C)(C)C)c(O)c(C(C)(C)C)c1 [C10, 2,6-di-tert-4-decylphenol]
Pseudomonas aeruginosa; [12]
  MIC: > 5000 µg/mL
Saccharomyces cerevisiae; [13]
  MIC: > 5000 µg/mL
Staphylococcus aureus; [14]
  MIC: > 5000 µg/mL
Escherichia coli; [15]
  MIC: > 5000 µg/mL
Nocardia asteroides [1]; [16]
  MIC: 5000 µg/mL
Candida albicans; [17]
  MIC: > 5000 µg/mL
Streptococcus pyogenes; [18]
  MIC: > 5000 µg/mL
Corynebacterium sp.; [19]
  MIC: 5000 µg/mL (≈ 14.4 mM)
[3]; [20]
  MIC: > 5000 µg/mL

## CCCCCCc1cc(C(C)(C)C)c(O)c(C(C)(C)C)c1 [C6, 2,6-di-tert-4-hexylphenol]
Pseudomonas aeruginosa; [12]
  MIC: > 5000 µg/mL
Saccharomyces cerevisiae; [13]
  MIC: > 5000 µg/mL
Staphylococcus aureus; [14]
  MIC: > 5000 µg/mL
Escherichia coli; [15]
  MIC: > 5000 µg/mL
Nocardia asteroides [1]; [16]
  MIC: 5000 µg/mL
Candida albicans; [17]
  MIC: > 5000 µg/mL
Streptococcus pyogenes; [18]
  MIC: > 5000 µg/mL
Corynebacterium sp.; [19]
  MIC: 5000 µg/mL (≈ 17.2 mM)
[3]; [20]
  MIC: > 5000 µg/mL

— patent US4067997A, “Synergistic microbecidal composition and method” (priority 1976, dated 1978)
